Laboratory results from patent US6355799B1, “Substituted benzene compounds, process for their preparation, and herbicidal and defoliant compositions containing them” (ISK Americas Incorporated, priority 1997, dated 2002).

How the values were obtained:
Type in all cases: in vivo
[1] = test system: velvetleaf (Abutilon theophrasti, ABUTH); test: Pre-emerge test, greenhouse herbicide activity screening; settings: rating scale 0-100, 14 days after application
Procedure, shortened: (§1)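 Compounds in acetone were track-sprayed at 187 l/ha, 15–1000 g ai/ha, onto sandy loam pots. Pre-emerge seeds were sown one day before spraying, with surface watering afterwards. Post-emerge plants were at the 2–3 leaf stage and sprayed with 0.25% v/v non-ionic surfactant. Injury was rated 0–100 at 14 days.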

[2] = test system: green foxtail (Setaria viridis, SETVI); test: as above; settings: rating scale 0-100, 14 days after application
Procedure, shortened: as §1

[3] = test system: johnsongrass (Sorghum halepense, SORHA); test: as above; settings: rating scale 0-100, 14 days after application
Procedure, shortened: as §1

[4] = test system: sicklepod (Cassia obtusifolia, CASOB); test: as above; settings: rating scale 0-100, 14 days after application
Procedure, shortened: as §1

[5] = test system: barnyardgrass (Echinochloa crus-galli, ECHCG); test: as above; settings: rating scale 0-100, 14 days after application
Procedure, shortened: as §1

[6] = test system: ivyleaf morningglory (Ipomoea hederacea, IPOHE); test: as above; settings: rating scale 0-100, 14 days after application
Procedure, shortened: as §1

[7] = test system: lambsquarters (Chenopodium album, CHEAL); test: as above; settings: rating scale 0-100, 14 days after application
Procedure, shortened: as §1

[8] = test system: large crabgrass (Digitaria sanguinalis, DIGSA); test: as above; settings: rating scale 0-100, 14 days after application
Procedure, shortened: as §1

[9] = test system: field corn (Zea mays L., var. Dekalb 535, CORN); test: Post-emerge test, crop safety; settings: rating scale 0-100 (0 no damage, 100 complete death), 14 days after application
Procedure, shortened: as §1

[10] = test system: upland rice (Oryza sp., var. Tebonnet, RICE); test: Post-emerge test, crop safety; settings: rating scale 0-100 (0 no damage, 100 complete death), 14 days after application
Procedure, shortened: as §1

[11] = test system: field corn (Zea mays L., var. Dekalb 535, CORN); test: Pre-emerge test, crop safety; settings: rating scale 0-100, 14 days after application
Procedure, shortened: (§2)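 Visual ratings on a 0-100 scale (0 no damage, 100 all plants dead) were taken at 14 days after treatment. Rates of 15-1000 g ai/ha in acetone, 187 l/ha, were sprayed onto soil one day after planting (pre-emerge) or onto 2-3 leaf plants with 0.25% v/v surfactant (post-emerge).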

[12] = test system: upland rice (Oryza sp., var. Tebonnet, RICE); test: Pre-emerge test, crop safety; settings: rating scale 0-100, 14 days after application
Procedure, shortened: as §2

[13] = test system: redroot pigweed (Amaranthus retroflexus, AMARE); test: Pre-emerge test, greenhouse herbicide activity screening; settings: rating scale 0-100, 14 days after application
Procedure, shortened: as §2

[14] = test system: velvetleaf (Abutilon theophrasti, ABUTH); test: Post-emerge test, greenhouse herbicide activity screening; settings: rating scale 0-100 (0 no damage, 100 complete death), 14 days after application
Procedure, shortened: (§3)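 Fourteen days after spraying, crop and weed injury was graded visually from 0, no effect, to 100, every plant dead. Test substances were dissolved in acetone and applied at 15–1000 g ai/ha with a flat-fan nozzle. Application was either pre-emergence, one day after sowing, or post-emergence at the 2–3 leaf stage.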

[15] = test system: green foxtail (Setaria viridis, SETVI); test: as above; settings: rating scale 0-100 (0 no damage, 100 complete death), 14 days after application
Procedure, shortened: as §3

[16] = test system: redroot pigweed (Amaranthus retroflexus, AMARE); test: as above; settings: rating scale 0-100 (0 no damage, 100 complete death), 14 days after application
Procedure, shortened: as §3

[17] = test system: johnsongrass (Sorghum halepense, SORHA); test: as above; settings: rating scale 0-100 (0 no damage, 100 complete death), 14 days after application
Procedure, shortened: as §3

[18] = test system: sicklepod (Cassia obtusifolia, CASOB); test: as above; settings: rating scale 0-100 (0 no damage, 100 complete death), 14 days after application
Procedure, shortened: as §3

[19] = test system: barnyardgrass (Echinochloa crus-galli, ECHCG); test: as above; settings: rating scale 0-100 (0 no damage, 100 complete death), 14 days after application
Procedure, shortened: as §3

[20] = test system: ivyleaf morningglory (Ipomoea hederacea, IPOHE); test: as above; settings: rating scale 0-100 (0 no damage, 100 complete death), 14 days after application
Procedure, shortened: as §3

[21] = test system: lambsquarters (Chenopodium album, CHEAL); test: as above; settings: rating scale 0-100 (0 no damage, 100 complete death), 14 days after application
Procedure, shortened: as §3

[22] = test system: large crabgrass (Digitaria sanguinalis, DIGSA); test: as above; settings: rating scale 0-100 (0 no damage, 100 complete death), 14 days after application
Procedure, shortened: as §3

SMILES: COc1c(Cl)cc(F)c(-n2c(=O)cc(C(F)(F)F)n(C)c2=O)c1CC(Cl)C(=O)OCCC(C)C (single isomer, unassigned) [14-16]
- Pre-emerge herbicidal activity, phytotoxicity rating ABUTH ([1]; 63 g ai/ha): 0
- Pre-emerge herbicidal activity, phytotoxicity rating ABUTH ([1]; 250 g ai/ha): 90
- Pre-emerge herbicidal activity, phytotoxicity rating SETVI ([2]; 63 g ai/ha): 0
- Pre-emerge herbicidal activity, phytotoxicity rating SETVI ([2]; 250 g ai/ha): 0
- Pre-emerge herbicidal activity, phytotoxicity rating SORHA ([3]; 63 g ai/ha): 0
- Pre-emerge herbicidal activity, phytotoxicity rating SORHA ([3]; 250 g ai/ha): 0
- Pre-emerge herbicidal activity, phytotoxicity rating CASOB ([4]; 63 g ai/ha): 0
- Pre-emerge herbicidal activity, phytotoxicity rating CASOB ([4]; 250 g ai/ha): 0
- Pre-emerge herbicidal activity, phytotoxicity rating ECHCG ([5]; 63 g ai/ha): 0
- Pre-emerge herbicidal activity, phytotoxicity rating ECHCG ([5]; 250 g ai/ha): 0
- Pre-emerge herbicidal activity, phytotoxicity rating IPOHE ([6]; 63 g ai/ha): 0
- Pre-emerge herbicidal activity, phytotoxicity rating IPOHE ([6]; 250 g ai/ha): 0
- Pre-emerge herbicidal activity, phytotoxicity rating CHEAL ([7]; 63 g ai/ha): 100
- Pre-emerge herbicidal activity, phytotoxicity rating CHEAL ([7]; 250 g ai/ha): 100
- Pre-emerge herbicidal activity, phytotoxicity rating DIGSA ([8]; 63 g ai/ha): 50
- Pre-emerge herbicidal activity, phytotoxicity rating DIGSA ([8]; 250 g ai/ha): 100
- Post-emerge phytotoxicity rating CORN (crop damage) ([9]; Rate 63 g ai/ha): 0
- Post-emerge phytotoxicity rating CORN (crop damage) ([9]; Rate 250 g ai/ha): 70
- Post-emerge phytotoxicity rating RICE (crop damage) ([10]; Rate 63 g ai/ha): 0
- Post-emerge phytotoxicity rating RICE (crop damage) ([10]; Rate 250 g ai/ha): 10
- Pre-emerge phytotoxicity rating, crop damage CORN ([11]; 63 g ai/ha): 0
- Pre-emerge phytotoxicity rating, crop damage CORN ([11]; 250 g ai/ha): 0
- Pre-emerge phytotoxicity rating, crop damage RICE ([12]; 63 g ai/ha): 0
- Pre-emerge phytotoxicity rating, crop damage RICE ([12]; 250 g ai/ha): 0
- Pre-emerge herbicidal activity, phytotoxicity rating AMARE ([13]; 63 g ai/ha): 100
- Pre-emerge herbicidal activity, phytotoxicity rating AMARE ([13]; 250 g ai/ha): 100
- Post-emerge Herbicidal Activity, phytotoxicity rating ABUTH ([14]; Rate 63 g ai/ha): 60
- Post-emerge Herbicidal Activity, phytotoxicity rating ABUTH ([14]; Rate 250 g ai/ha): 100
- Post-emerge Herbicidal Activity, phytotoxicity rating SETVI ([15]; Rate 63 g ai/ha): 0
- Post-emerge Herbicidal Activity, phytotoxicity rating SETVI ([15]; Rate 250 g ai/ha): 30
- Post-emerge Herbicidal Activity, phytotoxicity rating AMARE ([16]; Rate 63 g ai/ha): 60
- Post-emerge Herbicidal Activity, phytotoxicity rating AMARE ([16]; Rate 250 g ai/ha): 100
- Post-emerge Herbicidal Activity, phytotoxicity rating SORHA ([17]; Rate 63 g ai/ha): 0
- Post-emerge Herbicidal Activity, phytotoxicity rating SORHA ([17]; Rate 250 g ai/ha): 30
- Post-emerge Herbicidal Activity, phytotoxicity rating CASOB ([18]; Rate 63 g ai/ha): 20
- Post-emerge Herbicidal Activity, phytotoxicity rating CASOB ([18]; Rate 250 g ai/ha): 40
- Post-emerge Herbicidal Activity, phytotoxicity rating ECHCG ([19]; Rate 63 g ai/ha): 95
- Post-emerge Herbicidal Activity, phytotoxicity rating ECHCG ([19]; Rate 250 g ai/ha): 100
- Post-emerge Herbicidal Activity, phytotoxicity rating IPOHE ([20]; Rate 63 g ai/ha): 40
- Post-emerge Herbicidal Activity, phytotoxicity rating IPOHE ([20]; Rate 250 g ai/ha): 50
- Post-emerge Herbicidal Activity, phytotoxicity rating CHEAL ([21]; Rate 63 g ai/ha): 95
- Post-emerge Herbicidal Activity, phytotoxicity rating CHEAL ([21]; Rate 250 g ai/ha): 100
- Post-emerge Herbicidal Activity, phytotoxicity rating DIGSA ([22]; Rate 63 g ai/ha): 90
- Post-emerge Herbicidal Activity, phytotoxicity rating DIGSA ([22]; Rate 250 g ai/ha): 100

SMILES: C#CCOC(=O)C(Cl)Cc1c(OC)c(Cl)cc(F)c1-n1c(=O)cc(C(F)(F)F)n(C)c1=O (single isomer, unassigned) [14-19]
- Pre-emerge herbicidal activity, phytotoxicity rating ABUTH ([1]; 63 g ai/ha): 0
- Pre-emerge herbicidal activity, phytotoxicity rating ABUTH ([1]; 250 g ai/ha): 50
- Pre-emerge herbicidal activity, phytotoxicity rating SETVI ([2]; 63 g ai/ha): 0
- Pre-emerge herbicidal activity, phytotoxicity rating SETVI ([2]; 250 g ai/ha): 0
- Pre-emerge herbicidal activity, phytotoxicity rating SORHA ([3]; 63 g ai/ha): 0
- Pre-emerge herbicidal activity, phytotoxicity rating SORHA ([3]; 250 g ai/ha): 0
- Pre-emerge herbicidal activity, phytotoxicity rating CASOB ([4]; 63 g ai/ha): 0
- Pre-emerge herbicidal activity, phytotoxicity rating CASOB ([4]; 250 g ai/ha): 0
- Pre-emerge herbicidal activity, phytotoxicity rating ECHCG ([5]; 63 g ai/ha): 0
- Pre-emerge herbicidal activity, phytotoxicity rating ECHCG ([5]; 250 g ai/ha): 0
- Pre-emerge herbicidal activity, phytotoxicity rating IPOHE ([6]; 63 g ai/ha): 0
- Pre-emerge herbicidal activity, phytotoxicity rating IPOHE ([6]; 250 g ai/ha): 0
- Pre-emerge herbicidal activity, phytotoxicity rating CHEAL ([7]; 63 g ai/ha): 0
- Pre-emerge herbicidal activity, phytotoxicity rating CHEAL ([7]; 250 g ai/ha): 80
- Pre-emerge herbicidal activity, phytotoxicity rating DIGSA ([8]; 63 g ai/ha): 0
- Pre-emerge herbicidal activity, phytotoxicity rating DIGSA ([8]; 250 g ai/ha): 80
- Post-emerge phytotoxicity rating CORN (crop damage) ([9]; Rate 63 g ai/ha): 0
- Post-emerge phytotoxicity rating CORN (crop damage) ([9]; Rate 250 g ai/ha): 40
- Post-emerge phytotoxicity rating RICE (crop damage) ([10]; Rate 63 g ai/ha): 0
- Post-emerge phytotoxicity rating RICE (crop damage) ([10]; Rate 250 g ai/ha): 20
- Pre-emerge phytotoxicity rating, crop damage CORN ([11]; 63 g ai/ha): 0
- Pre-emerge phytotoxicity rating, crop damage CORN ([11]; 250 g ai/ha): 0
- Pre-emerge phytotoxicity rating, crop damage RICE ([12]; 63 g ai/ha): 0
- Pre-emerge phytotoxicity rating, crop damage RICE ([12]; 250 g ai/ha): 0
- Pre-emerge herbicidal activity, phytotoxicity rating AMARE ([13]; 63 g ai/ha): 0
- Pre-emerge herbicidal activity, phytotoxicity rating AMARE ([13]; 250 g ai/ha): 90
- Post-emerge Herbicidal Activity, phytotoxicity rating ABUTH ([14]; Rate 63 g ai/ha): 60
- Post-emerge Herbicidal Activity, phytotoxicity rating ABUTH ([14]; Rate 250 g ai/ha): 100
- Post-emerge Herbicidal Activity, phytotoxicity rating SETVI ([15]; Rate 63 g ai/ha): 0
- Post-emerge Herbicidal Activity, phytotoxicity rating SETVI ([15]; Rate 250 g ai/ha): 30
- Post-emerge Herbicidal Activity, phytotoxicity rating AMARE ([16]; Rate 63 g ai/ha): 90
- Post-emerge Herbicidal Activity, phytotoxicity rating AMARE ([16]; Rate 250 g ai/ha): 100
- Post-emerge Herbicidal Activity, phytotoxicity rating SORHA ([17]; Rate 63 g ai/ha): 0
- Post-emerge Herbicidal Activity, phytotoxicity rating SORHA ([17]; Rate 250 g ai/ha): 0
- Post-emerge Herbicidal Activity, phytotoxicity rating CASOB ([18]; Rate 63 g ai/ha): 40
- Post-emerge Herbicidal Activity, phytotoxicity rating CASOB ([18]; Rate 250 g ai/ha): 70
- Post-emerge Herbicidal Activity, phytotoxicity rating ECHCG ([19]; Rate 63 g ai/ha): 100
- Post-emerge Herbicidal Activity, phytotoxicity rating ECHCG ([19]; Rate 250 g ai/ha): 100
- Post-emerge Herbicidal Activity, phytotoxicity rating IPOHE ([20]; Rate 63 g ai/ha): 30
- Post-emerge Herbicidal Activity, phytotoxicity rating IPOHE ([20]; Rate 250 g ai/ha): 90
- Post-emerge Herbicidal Activity, phytotoxicity rating CHEAL ([21]; Rate 63 g ai/ha): 90
- Post-emerge Herbicidal Activity, phytotoxicity rating CHEAL ([21]; Rate 250 g ai/ha): 100
- Post-emerge Herbicidal Activity, phytotoxicity rating DIGSA ([22]; Rate 63 g ai/ha): 100
- Post-emerge Herbicidal Activity, phytotoxicity rating DIGSA ([22]; Rate 250 g ai/ha): 100
